One assay addresses PI4K-IIIβ (Homo sapiens, UniProt Q9UBF8). Kind of assay: PI-kinase assay (membrane capture assay for lipid kinase activity), PI4KIIIβ. The assay is classed as biochemical. The note with it: read-out: PI4KIIIβ kinase activity (IC50 class). The protocol: PI4-kinase inhibition can be determined by a kinase activity assay, e.g., by an assay that determines the level of incorporation of radiolabeled phosphate from [γ-^32P]-ATP into a substrate molecule after treatment with a subject compound, relative to a control, by measuring the beta-particle emission rate using a scintillation counter or phosphorimaging.
PI-kinase assay: Compounds are tested in C.1.1. PI kinase assays as described by Shokat et al., “A membrane capture assay for lipid kinase activity.” Nat. Protoc. […] Selected compounds of Table 1 and 2 were prepared and tested for inhibition activity in a variety of kinase assays.

A further assay deals with PI4KIIIα (Homo sapiens, UniProt P42356). The note with it: weak inhibition; cited from earlier work.

Structures are written as SMILES.

Data on 23 compounds can be found in patent publication US20220062243A1, “P14-Kinase Inhibitors with Anti-Cancer Activity” (The Board of Trustees of the Leland Stanford Junior …, priority 2019, published 2022).

PI4K-IIIβ, sequence (Q9UBF8 whole entry): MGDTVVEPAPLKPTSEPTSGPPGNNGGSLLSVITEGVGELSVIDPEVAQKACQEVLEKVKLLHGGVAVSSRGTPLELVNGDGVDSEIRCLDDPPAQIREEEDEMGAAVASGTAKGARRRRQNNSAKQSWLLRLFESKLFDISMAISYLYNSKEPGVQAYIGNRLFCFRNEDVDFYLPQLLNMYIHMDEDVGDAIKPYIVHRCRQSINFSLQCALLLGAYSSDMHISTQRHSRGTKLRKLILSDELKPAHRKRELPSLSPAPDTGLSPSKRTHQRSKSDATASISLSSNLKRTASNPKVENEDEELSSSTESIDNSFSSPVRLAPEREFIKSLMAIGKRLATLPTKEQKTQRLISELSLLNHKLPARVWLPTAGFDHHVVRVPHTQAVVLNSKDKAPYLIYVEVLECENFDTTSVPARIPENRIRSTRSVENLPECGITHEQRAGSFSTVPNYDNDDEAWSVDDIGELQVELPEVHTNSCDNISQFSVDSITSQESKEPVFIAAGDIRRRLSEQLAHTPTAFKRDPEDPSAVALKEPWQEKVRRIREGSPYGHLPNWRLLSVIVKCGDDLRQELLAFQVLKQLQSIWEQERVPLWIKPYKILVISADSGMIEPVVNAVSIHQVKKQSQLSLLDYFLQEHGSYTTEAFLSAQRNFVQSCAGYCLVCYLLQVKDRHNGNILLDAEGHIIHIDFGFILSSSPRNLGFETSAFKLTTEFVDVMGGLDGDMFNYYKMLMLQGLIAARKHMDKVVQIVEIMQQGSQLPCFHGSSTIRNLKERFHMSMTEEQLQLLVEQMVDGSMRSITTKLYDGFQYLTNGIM
PI4KIIIα, sequence (P42356 whole entry): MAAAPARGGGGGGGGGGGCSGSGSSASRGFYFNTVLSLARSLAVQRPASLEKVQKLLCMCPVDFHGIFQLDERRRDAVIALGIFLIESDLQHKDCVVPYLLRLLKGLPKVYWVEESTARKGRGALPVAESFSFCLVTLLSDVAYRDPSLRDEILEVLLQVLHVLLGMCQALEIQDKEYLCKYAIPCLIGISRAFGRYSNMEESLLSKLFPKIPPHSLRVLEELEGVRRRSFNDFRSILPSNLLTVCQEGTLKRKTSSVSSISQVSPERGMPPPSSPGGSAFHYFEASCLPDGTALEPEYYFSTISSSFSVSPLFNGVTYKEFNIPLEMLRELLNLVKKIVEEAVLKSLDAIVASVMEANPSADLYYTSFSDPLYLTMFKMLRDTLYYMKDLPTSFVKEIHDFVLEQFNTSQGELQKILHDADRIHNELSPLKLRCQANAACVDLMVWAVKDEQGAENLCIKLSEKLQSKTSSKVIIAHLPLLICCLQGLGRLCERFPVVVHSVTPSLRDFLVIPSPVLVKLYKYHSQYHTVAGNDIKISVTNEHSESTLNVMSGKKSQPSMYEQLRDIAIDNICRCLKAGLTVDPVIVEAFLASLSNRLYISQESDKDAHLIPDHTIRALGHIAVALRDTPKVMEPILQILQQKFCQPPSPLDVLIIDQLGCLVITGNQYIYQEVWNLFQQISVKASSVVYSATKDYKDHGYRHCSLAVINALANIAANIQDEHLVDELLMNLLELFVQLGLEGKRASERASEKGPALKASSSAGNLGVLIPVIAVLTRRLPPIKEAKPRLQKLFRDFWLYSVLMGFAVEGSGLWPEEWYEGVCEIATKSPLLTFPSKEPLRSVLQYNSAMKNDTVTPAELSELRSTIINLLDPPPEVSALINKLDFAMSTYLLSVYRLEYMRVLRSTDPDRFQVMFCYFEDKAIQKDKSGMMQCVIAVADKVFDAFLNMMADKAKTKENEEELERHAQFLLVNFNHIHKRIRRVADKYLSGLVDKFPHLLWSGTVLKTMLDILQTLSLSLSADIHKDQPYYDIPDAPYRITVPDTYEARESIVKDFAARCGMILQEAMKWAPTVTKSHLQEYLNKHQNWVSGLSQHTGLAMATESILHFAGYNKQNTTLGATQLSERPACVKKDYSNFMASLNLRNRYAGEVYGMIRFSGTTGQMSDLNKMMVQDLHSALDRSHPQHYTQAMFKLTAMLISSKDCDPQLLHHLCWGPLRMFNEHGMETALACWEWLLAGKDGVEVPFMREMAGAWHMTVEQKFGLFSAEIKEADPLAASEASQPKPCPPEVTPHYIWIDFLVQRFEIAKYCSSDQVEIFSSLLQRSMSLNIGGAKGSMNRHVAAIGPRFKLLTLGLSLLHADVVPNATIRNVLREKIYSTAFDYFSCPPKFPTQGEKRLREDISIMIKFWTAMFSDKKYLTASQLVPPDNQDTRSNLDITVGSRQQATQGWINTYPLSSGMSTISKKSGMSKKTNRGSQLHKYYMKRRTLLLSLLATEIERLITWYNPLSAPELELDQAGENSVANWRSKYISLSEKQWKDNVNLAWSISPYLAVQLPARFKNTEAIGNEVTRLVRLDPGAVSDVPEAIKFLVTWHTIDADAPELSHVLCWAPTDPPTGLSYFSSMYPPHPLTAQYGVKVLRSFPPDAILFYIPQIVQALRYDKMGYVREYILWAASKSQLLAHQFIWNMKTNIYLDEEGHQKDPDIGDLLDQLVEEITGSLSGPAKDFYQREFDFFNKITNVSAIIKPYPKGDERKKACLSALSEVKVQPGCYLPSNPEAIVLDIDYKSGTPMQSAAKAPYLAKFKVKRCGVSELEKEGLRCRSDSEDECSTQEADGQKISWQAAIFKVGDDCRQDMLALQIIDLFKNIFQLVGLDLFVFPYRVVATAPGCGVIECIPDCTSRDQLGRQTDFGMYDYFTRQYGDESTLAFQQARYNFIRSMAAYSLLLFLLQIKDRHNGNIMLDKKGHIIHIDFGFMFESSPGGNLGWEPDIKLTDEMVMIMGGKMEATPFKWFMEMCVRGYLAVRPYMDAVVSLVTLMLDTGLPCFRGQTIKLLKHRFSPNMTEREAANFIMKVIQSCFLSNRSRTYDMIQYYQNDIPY

The IC50 is the concentration at which inhibition is half-maximal. On to `COc1ncc(-c2sc(NC(=O)CC3CCOCC3)nc2C)cc1S(=O)(=O)Nc1ccc(F)cc1F` [Compound S-258], for which the IC50 on PI4K-IIIβ was in the range of 1000 to 10000 nM.
Take `COc1ccc(-c2sc(NCC3CCCCC3)nc2C)cc1S(=O)(=O)NC1CCN(C2CCCCC2)CC1` [Compound S-136, 5-[2-(cyclohexylmethylamino)-4-methyl-thiazol-5-yl]-N-(1-cyclohexyl-4-piperidyl)-2-methoxy-benzenesulfonamide]: the IC50 on PI4K-IIIβ is less than 100 nM.
With `COc1ccc(-c2sc(NCC3CCCCC3)nc2C)cc1S(=O)(=O)NC1CCCC(O)C1` (centres unmarked) [Compound S-199, 5-[2-(cyclohexylmethylamino)-4-methyl-thiazol-5-yl]-N-(3-hydroxycyclohexyl)-2-methoxy-benzenesulfonamide], the IC50 on PI4K-IIIβ is less than 100 nM.
On to `COc1ncc(-c2sc(NC(=O)CC3CCOCC3)nc2C)cc1S(=O)(=O)Nc1cccc(C(=O)O)c1` [Compound S-265], for which, on PI4K-IIIβ, the IC50 is less than 100 nM.
The same measure, in the same setting: in the case of `COc1ccc(-c2sc(NC(=O)CC3CCOCC3)nc2C)cc1S(=O)(=O)Nc1cc(C)cc(O)c1` [Compound S-169, N-[5-[3-[(3-hydroxy-5-methyl-phenyl)sulfamoyl]-4-methoxy-phenyl]-4-methyl-thiazol-2-yl]-2-tetrahydropyran-4-yl-acetamide] it was less than 100 nM; in that of `COc1ccc(-c2sc(N[C@H](C)C3CCCCC3)nc2C)cc1S(=O)(=O)NC1CCCNC1` (stereo partly drawn) [Compound S-148, 5-[2-[[(1R)-1-cyclohexylethyl]amino]-4-methyl-thiazol-5-yl]-2-methoxy-N-(3-piperidyl)benzenesulfonamide], less than 100 nM; in that of `COc1ccc(-c2sc(NC(=O)CCC3CCCC3)nc2C)cc1S(=O)(=O)N[C@H]1CC[C@H](O)CC1` [Compound S-156, 3-cyclopentyl-N-[5-[3-[(4-hydroxycyclohexyl)sulfamoyl]-4-methoxy-phenyl]-4-methyl-thiazol-2-yl]propanamide], less than 100 nM.
Turning to `COc1ccc(-c2sc(NCC3CCCCC3)nc2C)cc1S(=O)(=O)NC1CCN(C(C)C)CC1` [Compound S-134, 5-[2-(cyclohexylmethylamino)-4-methyl-thiazol-5-yl]-N-(1-isopropyl-4-piperidyl)-2-methoxy-benzenesulfonamide], at PI4K-IIIβ, the IC50 was less than 100 nM.
On to `COc1ccc(-c2sc(N[C@H](C)C3CCCCC3)nc2C)cc1S(=O)(=O)NC1CCNCC1` [Compound S-147, 5-[2-[[(1R)-1-cyclohexylethyl]amino]-4-methyl-thiazol-5-yl]-2-methoxy-N-(4-piperidyl)benzenesulfonamide], for which the IC50 on PI4K-IIIβ is less than 100 nM.
As to `COc1ccc(-c2sc(NCC3CCCCC3)nc2C)cc1S(=O)(=O)NCC1CCCCC1` [Compound S-128, N-(cyclohexylmethyl)-5-[2-(cyclohexylmethylamino)-4-methyl-thiazol-5-yl]-2-methoxy-benzenesulfonamide], at PI4K-IIIβ, the concentration for half-maximal inhibition (IC50) was 100 to 1000 nM.
For `Cc1ccc(-c2sc(NC(=O)CC3CCCC3)nc2C)cc1S(=O)(=O)NC1CCCNC1` (centres unmarked) [Compound S-189, 2-cyclopentyl-N-[4-methyl-5-[4-methyl-3-(3-piperidylsulfamoyl)phenyl]thiazol-2-yl]acetamide], the IC50 at PI4K-IIIβ was less than 100 nM.
With `COc1ccc(-c2sc(NCC3CCCCC3)nc2C)cc1S(=O)(=O)NC1CC1` [Compound S-127, 5-[2-(cyclohexylmethylamino)-4-methyl-thiazol-5-yl]-N-cyclopropyl-2-methoxy-benzenesulfonamide], the IC50 at PI4K-IIIβ lay within 100 to 1000 nM.
Consider `COc1ccc(-c2sc(NC(=O)CC3CCCC3)nc2C)cc1S(=O)(=O)N1CC[C@@H](O)C1` [Compound S-153, 2-cyclopentyl-N-[5-[3-[(3R)-3-hydroxypyrrolidin-1-yl]sulfonyl-4-methoxy-phenyl]-4-methyl-thiazol-2-yl]acetamide], for which the IC50 on PI4K-IIIβ was less than 100 nM.
For `COc1ccc(-c2sc(NCC3CCCCC3)nc2C)cc1S(=O)(=O)NC1CCNCC1` [Compound S-123, 5-[2-(cyclohexylmethylamino)-4-methyl-thiazol-5-yl]-2-methoxy-N-(4-piperidyl)benzenesulfonamide], the IC50 at PI4K-IIIβ was less than 100 nM.
With `COc1ccc(-c2sc(NC(=O)CC3CCOCC3)nc2C)cc1S(=O)(=O)Nc1ccccc1F` [Compound S-230, N-[5-[3-[(2-fluorophenyl)sulfamoyl]-4-methoxy-phenyl]-4-methyl-thiazol-2-yl]-2-tetrahydropyran-4-yl-acetamide], the IC50 on PI4K-IIIβ is less than 100 nM.
As to `COc1ccc(-c2sc(NCC(C)C)nc2C)cc1S(=O)(=O)N[C@H]1CC[C@H](O)CC1` [Compound S-221, N-(4-hydroxycyclohexyl)-5-[2-(isobutylamino)-4-methyl-thiazol-5-yl]-2-methoxy-benzenesulfonamide], the IC50 at PI4K-IIIβ was less than 100 nM.
In the case of `COc1ccc(-c2sc(NC(=O)CC3CCOCC3)nc2C)cc1S(=O)(=O)Nc1ccc(F)cc1` [Compound S-170, N-[5-[3-[(4-fluorophenyl)sulfamoyl]-4-methoxy-phenyl]-4-methyl-thiazol-2-yl]-2-tetrahydropyran-4-yl-acetamide], the IC50 at PI4K-IIIβ was less than 100 nM.
For the compound `COc1ccc(-c2sc(NC(=O)C(C)(C)C)nc2C)cc1S(=O)(=O)Nc1ccc(O)cc1` [PI4KIIIbeta-IN-10], the IC50 at PI4KIIIα was roughly 3000 nM.
As to `COc1ccc(-c2sc(NC(=O)C3CCCC3)nc2C)cc1S(=O)(=O)N[C@H]1CC[C@H](O)CC1` [Compound S-9, N-[5-[3-[(4-hydroxycyclohexyl)sulfamoyl]-4-methoxy-phenyl]-4-methyl-thiazol-2-yl]cyclopentanecarboxamide], the IC50 at PI4K-IIIβ is less than 100 nM.
Still for that read-out and setting: in the case of `COc1ccc(-c2sc(NC3CCCCCC3)nc2C)cc1S(=O)(=O)Nc1c(C)cccc1C` [Compound S-98, 5-[2-(cycloheptylamino)-4-methyl-thiazol-5-yl]-N-(2,6-dimethylphenyl)-2-methoxy-benzenesulfonamide;2,2,2-trifluoroacetic acid] it was less than 100 nM; in that of `COc1ccc(-c2sc(N[C@H](C)C3CCCCC3)nc2C)cc1S(=O)(=O)N[C@@H]1CCNC1` [Compound S-197, 5-[2-[[(1R)-1-cyclohexylethyl]amino]-4-methyl-thiazol-5-yl]-2-methoxy-N-[(3R)-pyrrolidin-3-yl]benzenesulfonamide], less than 100 nM; in that of `COc1ccc(-c2sc(NC(=O)Cc3ccccc3)nc2C)cc1S(=O)(=O)Nc1ccc(O)cc1` [Compound S-49, N-[5-[3-[(4-hydroxyphenyl)sulfamoyl]-4-methoxy-phenyl]-4-methyl-thiazol-2-yl]-2-phenyl-acetamide], less than 100 nM.
For `COc1ccc(-c2sc(NCC3CCCCC3)nc2C)cc1S(=O)(=O)NC1CCN(C2CCCC2)CC1` [Compound S-133, 5-[2-(cyclohexylmethylamino)-4-methyl-thiazol-5-yl]-N-(1-cyclopentyl-4-piperidyl)-2-methoxy-benzenesulfonamide], on PI4K-IIIβ, the IC50 is less than 100 nM.
